Source: US8957045B2, “Nucleoside phosphoramidates” (Gilead Pharmasset LLC, priority 2008, dated 2015)
Where two headings read alike, the source gives them in different places.

Key:
[1] = tested on: HCV replicon RNA-containing Huh7 cells (clone A cells); assay: HCV replicon assay; type: cell-based; conditions: 4 days incubation, replicon RNA by RT-PCR, EC90 = 1-log10 reduction (ΔCt of 3.3), read-out: CloneA EC90
Procedure: HCV replicon RNA-containing Huh7 cells (clone A cells; Apath, LLC, St. Louis, Mo.) were kept at exponential growth in Dulbecco's modified Eagle's medium (high glucose) containing 10% fetal bovine serum, 4 mM L-glutamine and 1 mM sodium pyruvate, 1× nonessential amino acids, and G418 (1,000 μg/ml). Antiviral assays were performed in the same medium without G418. Cells were seeded in a 96-well plate at 1,500 cells per well, and test compounds were added immediately after seeding. Incubation time 4 days. At the end of the incubation step, total cellular RNA was isolated (RNeasy 96 kit; Qiagen). Replicon RNA and an internal control (TaqMan rRNA control reagents; Applied Biosystems) were amplified in a single-step multiplex RT-PCR protocol as recommended by the manufacturer. The HCV primers and probe were designed with Primer Express software (Applied Biosystems) and covered highly conserved 5′-untranslated region (UTR) sequences (sense primer: 5′-AGCCATGGCGTTAGTA(T)GAGTGT-3′ (SEQ ID NO:1); antisense primer: 5′-TTCCGCAGACCΔCTATGG-3′ (SEQ ID NO:2); and probe: 5′-FAM-[…]-TAMRA-3′ (SEQ ID NO:3)).
To express the antiviral effectiveness of a compound, the threshold RT-PCR cycle of the test compound was subtracted from the average threshold RT-PCR cycle of the no-drug control (ΔCtHCV). A ΔCt of 3.3 equals a 1-log 10 reduction (equal to the 90% effective concentration [EC90]) in replicon RNA levels. The cytotoxicity of the test compound could also be expressed by calculating the ΔCTRNA values. The ΔΔCt specificity parameter could then be introduced (ΔCtHCV-ΔCtRNA), in which the levels of HCV RNA are normalized for the rRNA levels and calibrated against the no-drug control.

## COC(=O)[C@H](C)NP(=O)(OC[C@H]1O[C@@H](n2cnc3c(N4CCC4)nc(N)nc32)[C@](C)(F)[C@@H]1O)Oc1ccccc1 (stereo partly shown) [Compound 12]
[1]
  EC90: 70 nM

## C[C@H](NP(=O)(OC[C@H]1O[C@@H](n2cnc3c(O)nc(N)nc32)[C@](C)(F)[C@@H]1O)Oc1ccccc1)C(=O)OC1CCCC1 (stereo partly drawn) [Compound 14, (2S)-cyclopentyl 2-((((2R,3R,4R,5R)-5-(2-amino-6-hydroxy-9H-purin-9-yl)-4-fluoro-3-hydroxy-4-methyltetrahydrofuran-2-yl)methoxy) (phenoxy)phosphorylamino)propanoate]
[1]; Hepatitis C virus, Huh-7, 96 h
  EC90: 130 nM
other
  melting point: 133 to 150 °C

## COc1nc(N)nc2c1ncn2[C@@H]1O[C@H](COP(=O)(N[C@@H](C)C(=O)OC(C)C)Oc2ccccc2)[C@@H](O)[C@@]1(C)F (stereo partly drawn) [Compound 11, (2S)-isopropyl 2-((((2R,3R,4R,5R)-5-(2-amino-6-methoxy-9H-purin-9-yl)-4-fluoro-3-hydroxy-4-methyltetrahydrofuran-2-yl)methoxy) (phenoxy)phosphorylamino)propanoate]
[1]; Hepatitis C virus, Huh-7, 96 h
  EC90: 20 nM
